Key:
[1] = tested on: cancer cell line Capan-2 (pancreas adenocarcinoma, DSMZ, ACC-245); test: XTT test of antitumor efficacy in vitro, Capan-2; assay type: cell-based; details: 72 hours exposure
Description: (§1) XTT method was used in the in vitro experiments. We tested mother platinum (IV) complex TU31 (where X=Cl^−), three new platinum (IV) complexes according to the invention, where X=ClCH2COO^− (complex TU105), F3CCOO^− (complex TU106) and NO3^− (complex TU113), reference platinum (II) complex Oxaliplatin and reference platinum (IV) complex Satraplatin. Two cancer cell lines of heavy-to-treat tumors Capan-2 (pancreas adenocarcinoma) and PC-3 (prostate carcinoma) were used in XTT tests. The obtained results are summarized in the form of IC50 values in the following Table 1:
(§2) Antitumor efficacy of the new Pt(IV) complexes according to the invention was studied on heavy to treat cancer lines of pancreas and prostate. XTT method was used. Results were evaluated in IC50 values and compared with reference Pt(II) complex Oxaliplatin and reference Pt (IV) complex Satraplatin.
(§3) Fresh tumor cell lines were purchased from the Cell Bank to ensure their quality and activities. • a) Capan-2, pancreatic ductal adenocarcinoma, DSMZ, ACC-245 • b) PC-3, prostate carcinoma, ATCC® CRL1435™ Cultivation's Conditions of Tumor Cell Lines: Abbreviation of Used Compounds: • DMSO: dimethyl sulfoxide • PBS: phosphate buffered saline • XTT: 2,3-bis-(2-methoxy-4-nitro-5-sulphophenyl)-2H-tetrazolium-5-carboxanilide salt • PMS: N-methyl-dibenzopyrazinmethylsulfate • FBS: fetal bovine serum • NEAA: non-essential amino acids • L-glu: L-glutamine • DMEM: Dulbecco's Modified Eagle's Medium (SigmaAldrich) • PMS: phenazine methosulfate • Cultivation's conditions: 37° C., 5% CO2 • Growth medium: DMEM, 10% FBS, 2 mM L-glut., NEAA 100× XTT Working Procedure:
(§4) Tested compounds were dissolved in DMSO and diluted by PBS to tested concentration range just before addition to cell lines in wells. PBS was used as a positive control, DMSO in final concentration 20% was used as a negative control. All concentrations of compounds were assayed in triplicates. Each determination was carried out twice and was blinded for experimenter.
(§5) Testing was conducted on a 96-well plate. Dosage of tumor cells was about 2.5. 10^4 cells per well, dosage of growth medium was 100 μl per well. After 24 hours, the growth medium was suck off and 80 μl of fresh growth medium and 20 μl of solution with different concentration of the tested substance were added to wells. After 72 hours, the medium was suck off and 100 μl of a solution of Optimem reagent containing XTT and PMS were added to wells. After another 4 hours, the absorbance was measured at 450 nm (reference was at 630 nm). Results as IC50 were evaluated from the graph of normalized viability of cells plotted against the logarithm of the concentration of the substance.

[2] = tested on: cancer cell line PC-3 (prostate carcinoma, ATCC CRL-1435); test: XTT test of antitumor efficacy in vitro, PC-3; assay type: cell-based; details: 72 hours exposure
Description: as §1, §2, §3, §4, §5

[3] = tested on: Capan-2, pancreas adenocarcinoma (DSMZ, ACC-245); test: Antitumor efficacy in vivo, athymic mice model, subcutaneous Capan-2 tumor; parameters: species or system mice (Athymic Nude-FOXN-1^nu); details: for Average tumor weight 28 d / TWI % (tumor weight inhibition) / Average tumor volume 1 d / Average tumor volume 4 d / Average tumor volume 8 d / Average tumor volume 11 d / Average tumor volume 15 d / Average tumor volume 18 d / Average tumor volume 22 d / Average tumor volume 25 d / Average tumor volume 29 d / TVI % (tumor volume inhibition): Capan-2, oral dose 20 mg/kg; for Average tumor weight 28 d / TWI % (tumor weight inhibition): 28 d; for Average tumor volume 1 d: day 1; for Average tumor volume 4 d: day 4; for Average tumor volume 8 d: day 8; for Average tumor volume 11 d: day 11; for Average tumor volume 15 d: day 15; for Average tumor volume 18 d: day 18; for Average tumor volume 22 d: day 22; for Average tumor volume 25 d: day 25; for Average tumor volume 29 d: day 29; for TVI % (tumor volume inhibition): end of experiment; for anti-tumor efficacy (TWI %), times greater than for reference Satraplatin: both pancreatic tumors Capan-2 and PaTu8902
Description: (§6) Two new platinum (IV) complexes TU105 and TU106 from XTT tests were further studied in vivo on athymic mice model with two pancreatic tumors. The platinum (IV) complex Satraplatin and mother complex TU31 were used as reference compounds again. Two heavy-to-treat tumors of pancreas Capan-2 and PaTu8902 were cultivated and then subcutaneously administered to mice at a dose of 1.10^7 cells/mouse. After an increase in the subcutaneous tumors to a volume of about 0.2 cm^3, two doses of respective complexes 2×20 mg/kg were administered orally every 1 week. Control group of mice received no drug. Volume of tumors were continuously measured throughout the experiment. Three weeks after the second dose, mice were sacrificed, tumors removed, weighed and obtained data were evaluated in the form of tumor volume inhibition in % (TVI %) and tumor weight inhibition in % (TWI %), where: TVI %=100−[(TVexp/TVcont)×100] • TVexp=average volume of cured tumors in cm^3 • TVcont=average volume of control tumors in cm^3 TWI %=100−[(TWexp/TWcont)×100] • TWexp=average weight of cured tumors in g • TWcont=average weight of control tumors in g
(§7) In vivo model: Athymic Nude-FOXN-1^nu, 6 mice per group (3 male+3 female)
(§8) • a) Capan-2, pancreatic adenocarcinoma, ductal (DSMZ, ACC-245) • b) […], pancreatic adenocarcinoma, ductal, high metastatic, grade II (DSMZ, ACC-179) Used Pt (IV) Complexes: • a) the reference Pt (IV) complex Satraplatin, detailed specification, see example 4. • b) the mother Pt (IV) complex TU31, detailed specification, see example 4. • c) the new Pt (IV) complex TU105, detailed specification, see example 4. • d) the new Pt (IV) complex TU106, detailed specification, see example 4. Used Doses for Oral Administration:
(§9) The homogenous bulk composition of the each tested Pt (IV) complex (20 mass. %) with Gelucire 50/13 (80 mass. %) was converted to water emulsion before oral administration to mice.
(§10) Cultivation conditions of cancer cell lines: 37° C., 5% CO2, DMEM (Dulbecco's Modified Eagle's Medium, Sigma Aldrich), 10% FBS, (fetal bovine serum), 2 mM L-glutamin, non-essential aminoacids
(§11) Transplantation of cancer cells: A dose 1×10^7 of cells was subcutaneously transplanted to each experimental mouse, then mice were subdivided into individual experimental groups.
(§12) After an increase in the subcutaneous tumors to a volume of about 0.2 cm^3, two doses of respective complexes 2×20 mg/kg were administered orally every 1 week. The control group of mice received no drug. Volume of tumors were continuously measured throughout the experiment. Three weeks after the second dose, mice were sacrificed, tumors removed, weighed and obtained data were evaluated in the form of tumor volume inhibition in % (TVI %) and tumor weight inhibition in % (TWI %), where: TVI %=100−[(TVexp/TVcont)×100] • TVexp=average volume of cured tumors in cm^3 • TVcont=average volume of control tumors in cm^3 TWI %=100−[(TWexp/TWcont)×100] • TWexp=average weight of cured tumors in g • TWcont=average weight of control tumors in g Obtained Results: […]

[4] = tested on: PaTu8902, pancreas adenocarcinoma, metastatic, grade II (DSMZ, ACC-179); test: Antitumor efficacy in vivo, athymic mice model, subcutaneous PaTu8902 tumor; parameters: species or system mice (Athymic Nude-FOXN-1^nu); details: PaTu8902, oral dose 20 mg/kg; for Average tumor weight 28 d / TWI % (tumor weight inhibition): 28 d; for Average volume of tumor 1 d: day 1; for Average volume of tumor 4 d: day 4; for Average volume of tumor 8 d: day 8; for Average volume of tumor 11 d: day 11; for Average volume of tumor 15 d: day 15; for Average volume of tumor 18 d: day 18; for Average volume of tumor 22 d: day 22; for Average volume of tumor 25 d: day 25; for Average volume of tumor 29 d: day 29; for TVI % (tumor volume inhibition): end of experiment
Description: as §6, §7, §8, §9, §10, §11, §12

Row | SMILES | IC50 [1] [nM] | IC50 [2] [nM] | Average tumor weight 28 d [3] [g] | TWI % (tumor weight inhibition) [3] [%] | Average tumor volume 1 d [3] [cm^3] | Average tumor volume 4 d [3] [cm^3] | Average tumor volume 8 d [3] [cm^3] | Average tumor volume 11 d [3] [cm^3] | Average tumor volume 15 d [3] [cm^3] | Average tumor volume 18 d [3] [cm^3] | Average tumor volume 22 d [3] [cm^3] | Average tumor volume 25 d [3] [cm^3] | Average tumor volume 29 d [3] [cm^3] | TVI % (tumor volume inhibition) [3] [%] | Average tumor weight 28 d [4] [g] | TWI % (tumor weight inhibition) [4] [%] | Average volume of tumor 1 d [4] [cm^3] | Average volume of tumor 4 d [4] [cm^3] | Average volume of tumor 8 d [4] [cm^3] | Average volume of tumor 11 d [4] [cm^3] | other results
1 | N[C@@H]1CCCC[C@H]1N.O=C([O-])C(=O)[O-].[Pt+2] [Oxaliplatin, (1R,2R-1,2-cyclohexanediamine-N,N′) (ethanedioato-O,O′) platinum (II), reference compound] | > 100000 | 55700 |  |  |  |  |  |  |  |  |  |  |  |  |  |  |  |  |  |  | 
2 | CC(=O)[O][Pt]([NH2])([Cl])([Cl])([NH]C1CCCCC1)[O]C(C)=O [Satraplatin, cis-(ammine, cyclohexylamine)-trans-bis-acetate-cis-dichloride Pt(IV), reference compound] | > 30000 | 10200 | 0.711 | 10.3 | 0.21 | 0.23 | 0.30 | 0.39 | 0.47 | 0.56 | 0.66 | 0.77 | 0.90 | 10.0 | 7.245 | 11.5 | 0.21 | 0.50 | 0.99 | 1.94 | Average volume of tumor 15 d [4]: 3.10 cm^3; Average volume of tumor 18 d [4]: 4.80 cm^3; Average volume of tumor 22 d [4]: 6.80 cm^3; Average volume of tumor 25 d [4]: 9.35 cm^3; Average volume of tumor 29 d [4]: 11.90 cm^3; TVI % (tumor volume inhibition) [4]: 12.8%
3 | [NH3+][Pt-2]([Cl])([NH2+]C12CC3CC(CC(C3)C1)C2)([O]C(=O)CCl)([O]C(=O)C12CC3CC(CC(C3)C1)C2)[O]C(=O)C12CC3CC(CC(C3)C1)C2 [TU105, cis-(ammine,1-adamantylamine)-trans-bis(1-adamantylcarboxylate)-cis-(chloride, monochloroacetate) Pt (IV)] | 40 | 60 | 0.213 | 73.1 | 0.20 | 0.21 | 0.22 | 0.23 | 0.27 | 0.30 | 0.34 | 0.37 | 0.40 | 60.0 | 2.522 | 69.2 | 0.21 | 0.21 | 0.40 | 0.62 | anti-tumor efficacy (TWI %), times greater than for reference Satraplatin [3]: about 7 times; Average volume of tumor 15 d [4]: 1.06 cm^3; Average volume of tumor 18 d [4]: 1.65 cm^3; Average volume of tumor 22 d [4]: 2.46 cm^3; Average volume of tumor 25 d [4]: 3.40 cm^3; Average volume of tumor 29 d [4]: 4.35 cm^3; TVI % (tumor volume inhibition) [4]: 68.1%
4 | N.NC12CC3CC(CC(C3)C1)C2.O=C([O-])C(F)(F)F.O=C([O-])C12CC3CC(CC(C3)C1)C2.O=C([O-])C12CC3CC(CC(C3)C1)C2.[Cl-].[Pt+4] [TU106, cis-(ammine,1-adamantylamine)-trans-bis(1-adamantylcarboxylate)-cis-(chloride, trifluoroacetate) Pt (IV)] | 20 | 70 | 0.166 | 79.1 | 0.21 | 0.21 | 0.23 | 0.24 | 0.25 | 0.26 | 0.28 | 0.29 | 0.31 | 69.0 | 2.317 | 71.7 | 0.21 | 0.21 | 0.37 | 0.60 | anti-tumor efficacy (TWI %), times greater than for reference Satraplatin [3]: about 7 times; Average volume of tumor 15 d [4]: 1.01 cm^3; Average volume of tumor 18 d [4]: 1.60 cm^3; Average volume of tumor 22 d [4]: 2.35 cm^3; Average volume of tumor 25 d [4]: 3.27 cm^3; Average volume of tumor 29 d [4]: 4.20 cm^3; TVI % (tumor volume inhibition) [4]: 69.2%
5 | [NH3+][Pt-2]([Cl])([NH2+]C12CC3CC(CC(C3)C1)C2)([O]C(=O)C12CC3CC(CC(C3)C1)C2)([O]C(=O)C12CC3CC(CC(C3)C1)C2)[O][N+](=O)[O-] [TU113, cis-(ammine,1-adamantylamine)-trans-bis(1-adamantylcarboxylate)-cis-(chloride, nitrate) Pt (IV)] | 110 | 230 |  |  |  |  |  |  |  |  |  |  |  |  |  |  |  |  |  |  | 

Reference: US12351593B2, “Platinum IV complexes with substantially increased antitumor efficacy” (priority 2019, dated 2025)
